Several values for one entry are separate records, joined by “and”; a condition that tells them apart may be missing. Identical values can stand only once. Like-named read-outs stand apart in the source and are kept apart here.
What was measured:
[1] = molecular target: T1, PfHT (Plasmodium falciparum, UniProt Q7KWJ5); assay: Kinetic analysis (Dixon plot) of zero-trans D-fructose uptake in HEK293PfHT cells; format: cell-based; design: expressed in transfected cells; host or cells: HEK293 (HEK293-FLIP, native hGLUT1 knocked down by shRNA)
T1 sequence (Q7KWJ5 1-504): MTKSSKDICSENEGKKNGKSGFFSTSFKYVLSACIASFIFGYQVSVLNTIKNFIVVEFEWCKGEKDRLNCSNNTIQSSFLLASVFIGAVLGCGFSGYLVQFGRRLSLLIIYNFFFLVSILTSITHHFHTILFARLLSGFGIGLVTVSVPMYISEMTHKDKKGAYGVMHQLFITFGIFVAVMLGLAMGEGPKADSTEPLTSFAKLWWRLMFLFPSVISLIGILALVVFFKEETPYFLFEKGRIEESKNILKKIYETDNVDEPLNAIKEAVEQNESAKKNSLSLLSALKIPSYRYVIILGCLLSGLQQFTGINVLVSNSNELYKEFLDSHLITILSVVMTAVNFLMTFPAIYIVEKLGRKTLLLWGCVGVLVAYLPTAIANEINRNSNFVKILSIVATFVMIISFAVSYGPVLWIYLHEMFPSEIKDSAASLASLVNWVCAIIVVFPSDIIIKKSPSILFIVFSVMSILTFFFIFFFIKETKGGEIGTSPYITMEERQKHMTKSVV
Method: Glucose uptake by P. falciparum was performed essentially as described. P. falciparum strain 3D7 was cultured in 100 mm tissue culture dishes (Techno Plastic Products) in a 2% suspension of human erythrocytes and RPMI 1640 medium until reaching > 7.5% parasitemia. Cells were pelleted via centrifugation and resuspended in RPMI 1640 medium. To determine the uptake of radiolabeled glucose into the parasite, parasites were isolated from infected erythrocytes by permeablization with saponin (0.05 w/v), followed by centrifugation, aspiration of supernatant and washing of the pellet 3X with saline solution (135 mM NaCl, 2 mM KCl, 25 mM HEPES, 0.2 mM glucose and 1 mM MgCl2; pH 7.1) to remove cellular debris. WU-1 or DMSO vehicle were added to 100 μl parasites (resuspended in saline) 5 min prior to the addition of 100 μl [^14C]2-DOG (0.2- μCi/ml final concentration). 2-DG uptake was stopped after 2 min by layering the entire reaction over 300 μl of an oil mixture (5:4 mix of dibutyl phthalate / dinonyl phthalate) in Eppendorf tubes and centrifuged at 15,850 × g for 2 mins. The ratio of the estimated intracellular concentration of radiolabel relative to the extracellular concentration were calculated as described. Uptake of radiolabeled hexose into HEK293 cells was measured in glucose-free HBSS as described previously. Briefly, cells were plated at 400,000 cells/well overnight at 37°C in 24-well plates pre-treated with PEI. After 30-min incubation at 37°C in glucose-free HBSS in the presence of vehicle or increasing concentrations of compound, 2-DG uptake was measured in glucose-free HBSS for 4 min at 37°C. Cultures were washed in ice-cold 1X PBS and lysed in 0.1% Triton X-100 in 1X PBS. Radiolabeled hexose uptake was determined by liquid scintillation counting (Ultima Gold, Thermo Fisher) and normalized to total protein per well. […] Incubation times had been previously determined as being in the linear range of time-dependent radiolabeled hexose uptake (2 min for 2-DG uptake into freed parasites; 2 and 4 min for D-Frc and 2-DG uptake HEK cell lines, respectively). […]

[2] = molecular target: T2, hGLUT8 (Homo sapiens, UniProt Q9NY64, E7R/E8R); assay: 2-DG uptake by HEK293 cells overexpressing hGLUT8; format: cell-based
T2 construct: expressed in transfected cells; host or cells: HEK293 (HEK293-FLIP, native hGLUT1 knocked down)
T2 sequence (Q9NY64 1-477 E7R/E8R): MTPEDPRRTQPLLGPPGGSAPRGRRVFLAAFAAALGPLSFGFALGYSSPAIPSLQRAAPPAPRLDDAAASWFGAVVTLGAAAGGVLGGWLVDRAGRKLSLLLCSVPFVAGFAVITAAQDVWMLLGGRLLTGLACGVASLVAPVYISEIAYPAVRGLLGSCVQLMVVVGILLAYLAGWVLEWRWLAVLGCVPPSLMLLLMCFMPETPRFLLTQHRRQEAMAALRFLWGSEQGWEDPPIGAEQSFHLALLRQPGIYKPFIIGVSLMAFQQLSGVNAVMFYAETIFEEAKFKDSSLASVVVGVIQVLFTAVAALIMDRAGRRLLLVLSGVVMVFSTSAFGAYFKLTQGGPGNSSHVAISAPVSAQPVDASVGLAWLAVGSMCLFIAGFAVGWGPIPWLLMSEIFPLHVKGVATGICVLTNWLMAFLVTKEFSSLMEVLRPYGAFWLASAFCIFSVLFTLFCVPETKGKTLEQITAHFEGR
Text: Generation of HEK293 cells overexpressing PfHT and human GLUTs 1–4 were described elsewhere. Briefly, HEK293 cells were transfected with pcDNA3.1 FLII12Pglu-7006 (Addgene), containing the fluorescence resonance energy transfer (FRET) glucose sensor (HEK293-FLIP) and PfHT, human GLUT1 (hGLUT1), hGLUT2, hGLUT3, hGLUT4, hGLUT5 or hGLUT8 using Optifect (Life Technologies) according to manufacturer’s specifications. To increase retention of GLUT8 at the plasma membrane, the dileucine sorting signal E^7E^8XXXLL was modified to R^7R^8XXXLL as described in [17]. Stable transfectants were selected for G418 and hygromycin resistance to select for FRET sensor and hexose transporter, respectively. HEK293-FLIP cells were also used to generate cells stably transfected with FLAG-tagged PfHT (FTPfHT). FLAG tag ([…]) followed by a triple glycine linker and a tobacco etch virus (TEV) protease site (ENLYFQS) followed by a triple glycine linker was added to the N-terminus of PfHT via PCR [18] using Phusion Hot Start II High-Fidelity DNA Polymerase (Fisher Scientific). Single clones were selected by comparing their abilities to transport glucose as assayed via FRET and radiolabeled hexose uptake. In all cell lines, except for HEK293 cells overexpressing hGLUT1 and hGLUT5, native hGLUT1 was knocked down using shRNA as described elsewhere. Transcript levels of the individual GLUTs expressed in each cell line are as described in [13, 15] and in S1 Fig.
Glucose uptake by P. falciparum was performed essentially as described. P. falciparum strain 3D7 was cultured in 100 mm tissue culture dishes (Techno Plastic Products) in a 2% suspension of human erythrocytes and RPMI 1640 medium until reaching > 7.5% parasitemia. Cells were pelleted via centrifugation and resuspended in RPMI 1640 medium. To determine the uptake of radiolabeled glucose into the parasite, parasites were isolated from infected erythrocytes by permeablization with saponin (0.05 w/v), followed by centrifugation, aspiration of supernatant and washing of the pellet 3X with saline solution (135 mM NaCl, 2 mM KCl, 25 mM HEPES, 0.2 mM glucose and 1 mM MgCl2; pH 7.1) to remove cellular debris. WU-1 or DMSO vehicle were added to 100 μl parasites (resuspended in saline) 5 min prior to the addition of 100 μl [^14C]2-DOG (0.2- μCi/ml final concentration). 2-DG uptake was stopped after 2 min by layering the entire reaction over 300 μl of an oil mixture (5:4 mix of dibutyl phthalate / dinonyl phthalate) in Eppendorf tubes and centrifuged at 15,850 × g for 2 mins. The ratio of the estimated intracellular concentration of radiolabel relative to the extracellular concentration were calculated as described. Uptake of radiolabeled hexose into HEK293 cells was measured in glucose-free HBSS as described previously. Briefly, cells were plated at 400,000 cells/well overnight at 37°C in 24-well plates pre-treated with PEI. After 30-min incubation at 37°C in glucose-free HBSS in the presence of vehicle or increasing concentrations of compound, 2-DG uptake was measured in glucose-free HBSS for 4 min at 37°C. Cultures were washed in ice-cold 1X PBS and lysed in 0.1% Triton X-100 in 1X PBS. Radiolabeled hexose uptake was determined by liquid scintillation counting (Ultima Gold, Thermo Fisher) and normalized to total protein per well. Uptake data are plotted as percent uptake relative to vehicle-treated cells. Kinetic analyses were performed using the indicated concentrations of substrate and WU-1, with quenching of uptake after 1 min incubation. Incubation times had been previously determined as being in the linear range of time-dependent radiolabeled hexose uptake (2 min for 2-DG uptake into freed parasites; 2 and 4 min for D-Frc and 2-DG uptake HEK cell lines, respectively). Data were fit by least squares nonlinear regression analysis using GraphPad Prism 6.0 software.

Cc1ccc(S(=O)(=O)CCNC(=O)c2c(-c3c(Cl)cccc3Cl)noc2C)cc1 [WU-1, 3-(2,6-dichlorophenyl)-5-methyl-N-[2-(4-methylbenzenesulfonyl)ethyl]-1,2-oxazole-4-carboxamide]
Ki ([1]; Ki (Dixon plot, horizontal intercepts), zero-trans D-fructose uptake, HEK293PfHT, mean): 4.4 ± 0.3 µM | Ki ([1]; Ki (µM) from individual Dixon lines, one value per D-fructose concentration line): 5.32 µM and 4.25 µM and 3.83 µM and 4.22 µM | mode of inhibition ([1]; zero-trans D-fructose uptake/hexose influx by PfHT): non-competitive inhibitor | IC50 ([2]; GLUT8, 2-DG Uptake, average of Expt 1-3, read-out: AVE IC50): 25 µM | IC50 ([2]; GLUT8, 2-DG Uptake, single experiments Expt 1-3, read-out: IC50): 39.8 µM and 19.9 µM and 15.3 µM | IC50 ([2]; GLUT8 cell line, read-out: IC50, 2-DG uptake): 25 ± 7.5 µM | remaining activity at 0.001 µM ([2]; HEK293, 4 min, GLUT8, concentration 0.001 µM, Expt 1-3, read-out: 2-DG Uptake AVE): 100% | remaining activity at 0.3125 µM ([2]; HEK293, 4 min, GLUT8, concentration 0.3125 µM, read-out: 2-DG Uptake AVE): 104% | remaining activity at 0.625 µM ([2]; HEK293, 4 min, GLUT8, concentration 0.6250 µM, read-out: 2-DG Uptake AVE): 95.3% | remaining activity at 1.25 µM ([2]; HEK293, 4 min, GLUT8, concentration 1.250 µM, read-out: 2-DG Uptake AVE): 98.6% | remaining activity at 2.5 µM ([2]; HEK293, 4 min, GLUT8, concentration 2.500 µM, read-out: 2-DG Uptake AVE): 97.5% | remaining activity at 5 µM ([2]; HEK293, 4 min, GLUT8, concentration 5.0 µM, read-out: 2-DG Uptake AVE): 88% | remaining activity at 20 µM ([2]; HEK293, 4 min, GLUT8, concentration 20 µM, read-out: 2-DG Uptake AVE): 60.6% | remaining activity at 80 µM ([2]; HEK293, 4 min, GLUT8, concentration 80 µM, read-out: 2-DG Uptake AVE): 41.2% | remaining activity at 160 µM ([2]; HEK293, 4 min, GLUT8, concentration 160 µM, read-out: 2-DG Uptake AVE): 25.7% | remaining activity at 225 µM ([2]; HEK293, 4 min, GLUT8, concentration 225 µM, read-out: 2-DG Uptake AVE): 23.9% | Selectivity Index (PfHT over GLUT8), 2-DG ([2]; calculated from IC50s): 4.3
